Test results: patent US20250136634A1, “CAP ANALOG AND USE THEREOF” (SHANGHAI HONGENE BIOTECH CORPORATION, priority 2021, published 2025)

Key:
Hela cells (ATCC CCL-2) = assay: Protein expression of Gaussia luciferase mRNA with various initial caps in transfected Hela cells; format: cell-based; settings: 2 ug mRNA/well, 24 h after transfection, relative to ^m7GpppApG cap, mean±SD; for Relative Luciferase Unit RLU (after purification): HPLC-purified mRNA; for Relative Luciferase Unit RLU (no purification): unpurified mRNA
Description: In this example, Hela cells (ATCC CCL-2) were transfected with luciferase mRNAs (Gaussia luciferase) comprising various initial cap structures (the initial cap nucleotide structures comprised are: ^m7GpppApG, ^m7GpppA2′Ome pG, ^m7G3′OmepppA2′O-ethylpG, ^m7G2′OmepppA2′O-ethylpG, ^m7G3′OmepppA2′O-MOEpG, ^m7G2′O-mepppA2′O-MOEpG, ^m7Gppp(N6-methyladenine)2′O-MOEpG, ^m7G2′OmepppC2′O-ethylpC, ^m7G3′OmepppA2′O-MOEpU), and the signal intensity of luciferase was detected by microplate reader after 24 h. The fluorescence signal intensity was proportional to the abundance of protein expression. Hela cells were seeded at a density of 4×10^5/well in 6-well plates, and transfection was carried out when the cell density reached approximately 80%. Each well was transfected with 2 ug mRNA, and the transfection reagent was Lipofectamine MessengerMAX Transfection Reagent (Invitrogen), and the transfection steps were carried out according to the instructions. Twenty-four hours after transfection, the signal intensity of luciferase was measured on microplate reader. Measurement of luciferase fluorescence: the transfected cell culture solution was transferred to a 1.5 mL centrifuge tube and centrifuged, 10 ul of cell supernatant was taken and added to a 96-well plate, and 50 ul of 10 ng/ml substrate was added, and then the fluorescence intensity was measured on Synergy HI (BioTek) instrument. The expression of each mRNA was required to be measured 6 times and the expression results were relative values to the results of ^m7GpppApG cap.
The fluorescence signal intensity was proportional to the abundance of protein expression.
Hela cells were seeded at a density of 4×10^5/well in 6-well plates, and transfection was carried out when the cell density reached approximately 80%. Each well was transfected with 2 ug mRNA, and the transfection reagent was Lipofectamine MessengerMAX Transfection Reagent (Invitrogen), and the transfection steps were carried out according to the instructions. Twenty-four hours after transfection, the signal intensity of luciferase was measured on microplate reader. Measurement of luciferase fluorescence: the transfected cell culture solution was transferred to a 1.5 mL centrifuge tube and centrifuged, 10 ul of cell supernatant was taken and added to a 96-well plate, and 50 ul of 10 ng/ml substrate was added, and then the fluorescence intensity was measured on Synergy HI (BioTek) instrument. The expression of each mRNA was required to be measured 6 times and the expression results were relative values to the results of ^m7GpppApG cap.

INFB = assay: Immunogenicity: expression of intracellular inflammatory factor INFB by qPCR in Hela cells; format: cell-based; settings: 2 ug mRNA/well, 24 hours after transfection, relative to ^m7GpppApG cap, mean±SD
Description: In this example, Hela cells (ATCC CCL-2) were transfected with luciferase mRNAs (Gaussia luciferase) comprising various initial cap structures (the initial cap nucleotide structures comprised are: ^m7GpppApG, ^m7GpppA2′Ome pG, ^m7G3′OmepppA2′O-ethylpG, ^m7G2′OmepppA2′O-ethylpG, ^m7G3′OmeppA2′O-MOEpG, ^m7G2′OmepppA2′O-MOEpG, ^m7Gppp(N6-methyladenine)2′O-MOEpG, ^m7G2′OmepppC2′O-ethylpC, ^m7G3′OmepppA2′O-MOEpU), and collected after 24 hours. The expression of intracellular inflammatory factors was detected, and the relative abundance of the factors is in proportional to the immunogenicity of the mRNA.
(§1) Hela cells were seeded at a density of 4×10^5/well in 6-well plates, and transfection was carried out when the cell density reached approximately 80%. Each well was transfected with 2 ug mRNA, and the transfection reagent was Lipofectamine MessengerMAX Transfection Reagent (Invitrogen), and the transfection steps were carried out according to the instructions. Twenty-four hours after transfection, the cells were collected and TRIzol was used to extract RNAs which were then reverse transcribed into cDNAs. The expression of intracellular inflammatory factors was detected using real-time quantitative fluorescent PCR with B-actin as the internal reference. The detection of each gene was repeated 3 times, and the result of the expression of each gene is expressed as the relative value to the result of ^m7GpppApG cap.
as §1, with “The expression of intracellular inflammatory factors was detected, and the relative abundant of the factors is in proportional to the immunogenicity of the mRNA. Hela” for “Hela”, “β-actin” for “B-actin”

[1] = Example 3 (IVT at 50° C.), β-actin reference

Row | Substance | Relative Luciferase Unit RLU (after purification) (Hela cells (ATCC CCL-2); Example 2) | Relative Luciferase Unit RLU (no purification) (Hela cells (ATCC CCL-2); Example 2) | Expression of INFB (INFB; Example 2, B-actin reference) | Relative Luciferase Unit RLU (after purification) (Hela cells (ATCC CCL-2); Example 3 (IVT at 50° C.)) | Relative Luciferase Unit RLU (no purification) (Hela cells (ATCC CCL-2); Example 3 (IVT at 50° C.)) | Expression of INFB (INFB; [1])
1 | ^m7G2′OmepppA2′O-MOEpG | 5.11 ± 0.17 | 4.47 ± 0.07 | 0.24 ± 0.03 | – | – | –
2 | ^m7G2′OmepppA2′O-ethylpG | 3.34 ± 0.01 | 2.83 ± 0.11 | 0.42 ± 0.02 | – | – | –
3 | ^m7G2′OmepppC2′O-ethylpC | 1.71 ± 0.18 | 1.33 ± 0.06 | 0.78 ± 0.01 | – | – | –
4 | ^m7G3′OmepppA2′O-MOEpG | 4.18 ± 0.16 | 3.3 ± 0.13 | 0.41 ± 0.01 | – | – | –
5 | ^m7G3′OmepppA2′O-MOEpU | 1.76 ± 0.12 | 1.32 ± 0.06 | 1.18 ± 0.08 | – | – | –
6 | ^m7G3′OmepppA2′O-ethylpG | 2.73 ± 0.03 | 2.63 ± 0.15 | 0.47 ± 0.01 | – | – | –
7 | ^m7GAlpha-L-LNApppA2′O-ethyl pG | – | – | – | 2.97 ± 0.09 | 2.67 ± 0.02 | 0.11 ± 0.03
8 | ^m7GBeta-D-LNApppA2′O-MOEpG | – | – | – | 3.45 ± 0.01 | 3 ± 0.12 | 0.09 ± 0.02
9 | ^m7Gppp(N6-methyladenine)2′O-MOEpG | 3.23 ± 0.07 | 2.98 ± 0.02 | 0.46 ± 0.02 | – | – | –
10 | ^m7GpppA2′Ome pG [reference compound] | 3.3 ± 0.13 | 2.94 ± 0.02 | 0.61 ± 0.01 | 1.56 ± 0.11 | 1.25 ± 0.11 | 0.63 ± 0.04
11 | ^m7GpppApG [reference compound] | 1 ± 0.19 | 1 ± 0.02 | 1 ± 0.08 | 1 ± 0.12 | 1 ± 0.02 | 1 ± 0.13
